Seven compounds from ChEMBL document CHEMBL1143507, “Molecular-modeling based design, synthesis, and activity of substituted piperidines as gamma-secretase inhibitors” (Bioorg Med Chem Lett, 2005) can be followed below.

The target of test [1] is T1, Amyloid-beta precursor protein (Homo sapiens, UniProt P05067). The test is described as follows: In vitro effective concentration against beta amyloid protein 42 in ELISA; increase in presence of weak inhibitor.
Target sequence in this assay (P05067 whole entry): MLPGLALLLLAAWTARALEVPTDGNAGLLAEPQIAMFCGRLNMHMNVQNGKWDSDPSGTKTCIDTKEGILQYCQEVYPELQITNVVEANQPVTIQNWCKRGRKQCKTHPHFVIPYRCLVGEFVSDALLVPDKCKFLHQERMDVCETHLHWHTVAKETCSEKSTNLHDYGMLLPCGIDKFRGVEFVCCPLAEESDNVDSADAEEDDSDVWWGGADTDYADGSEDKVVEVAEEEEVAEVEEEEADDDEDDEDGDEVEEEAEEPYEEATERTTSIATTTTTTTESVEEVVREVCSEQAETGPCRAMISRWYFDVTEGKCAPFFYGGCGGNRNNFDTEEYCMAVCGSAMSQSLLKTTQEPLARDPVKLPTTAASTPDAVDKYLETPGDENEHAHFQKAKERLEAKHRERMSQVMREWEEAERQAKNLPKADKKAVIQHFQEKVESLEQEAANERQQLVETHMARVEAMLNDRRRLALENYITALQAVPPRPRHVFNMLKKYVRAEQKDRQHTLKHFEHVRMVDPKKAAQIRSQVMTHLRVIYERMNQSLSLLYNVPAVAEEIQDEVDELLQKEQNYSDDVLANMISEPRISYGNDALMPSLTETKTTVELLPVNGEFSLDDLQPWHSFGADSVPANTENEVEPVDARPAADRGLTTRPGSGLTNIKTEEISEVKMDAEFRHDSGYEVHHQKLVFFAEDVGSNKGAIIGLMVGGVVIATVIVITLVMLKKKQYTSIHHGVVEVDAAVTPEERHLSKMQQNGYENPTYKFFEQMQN
The target of test [2] is T1, Amyloid-beta precursor protein. The test is described as follows: Percent inhibition of beta amyloid protein 40 activity in ELISA at 100 uM. In general terms: In an ELISA, binding on a coated surface is turned into a signal by an enzyme label.
Target sequence in this assay (P05067 whole entry): as above
The target is the same in test [3]. The experiment in a line: In vitro elevation of beta C-terminal fragment (Ct-99) in CHO cells expressing mutant Swedish NL human APP. The test is classed as functional, cell-based.
Target sequence in this assay (P05067 18-770 limits assumed): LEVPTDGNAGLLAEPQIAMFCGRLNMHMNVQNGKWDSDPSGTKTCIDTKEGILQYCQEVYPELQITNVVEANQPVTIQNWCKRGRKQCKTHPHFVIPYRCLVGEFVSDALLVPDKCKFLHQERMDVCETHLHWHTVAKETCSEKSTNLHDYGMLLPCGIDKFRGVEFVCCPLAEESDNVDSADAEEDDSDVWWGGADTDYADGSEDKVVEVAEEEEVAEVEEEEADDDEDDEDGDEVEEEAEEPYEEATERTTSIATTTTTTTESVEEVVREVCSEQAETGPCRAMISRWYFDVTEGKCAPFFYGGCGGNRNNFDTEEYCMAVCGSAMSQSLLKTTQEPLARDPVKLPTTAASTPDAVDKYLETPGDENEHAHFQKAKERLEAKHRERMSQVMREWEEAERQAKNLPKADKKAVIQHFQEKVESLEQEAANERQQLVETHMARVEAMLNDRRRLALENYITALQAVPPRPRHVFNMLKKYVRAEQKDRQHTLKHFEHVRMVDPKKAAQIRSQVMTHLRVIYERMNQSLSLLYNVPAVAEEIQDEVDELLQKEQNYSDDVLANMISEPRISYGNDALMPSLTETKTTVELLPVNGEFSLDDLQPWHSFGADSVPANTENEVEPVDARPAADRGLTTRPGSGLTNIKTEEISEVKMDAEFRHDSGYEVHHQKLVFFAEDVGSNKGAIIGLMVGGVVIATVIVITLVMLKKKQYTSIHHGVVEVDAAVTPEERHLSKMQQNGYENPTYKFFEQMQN
For test [4] the target is unchanged. The experiment in a line: In vitro reduction of Swedish NL mutant amyloid precursor protein activity expressed in CHO cells. The test is classed as functional, cell-based.
Target sequence in this assay (P05067 18-770 limits assumed): as above

As a reminder, the EC50 is the midpoint of the concentration-response curve. With `CCOC(=O)N1CCC(c2ccccc2)(S(=O)(=O)c2ccc(OC)cc2)CC1`, the EC50 result in test [1] is given as “Increase”.

Take `CCOC(=O)N1CCC(c2ccccc2OC)(S(=O)(=O)c2ccc(OC)cc2)CC1`: the 50% effective concentration (EC50) result in test [1] is on record as “Increase”. The term inhibition denotes how much of the control response was suppressed. A high value points to a strong effect. `CCOC(=O)N1CCC(c2ccccc2)(S(=O)(=O)c2ccccc2)CC1` returned an inhibition in test [2] of 84%. Besides, the concentration for a half-maximal effect (EC50) entry in test [1] is on record as “Increase”.

Regarding `CCOC(=O)N1CCC(c2ccccc2C)(S(=O)(=O)c2ccccc2)CC1`, in test [1], the 50% effective concentration (EC50) result is reported as “Increase”. The same measure, in the same setting: the result for `CCOC(=O)N1CCC(c2ccccc2OC)(S(=O)(=O)c2ccccc2)CC1` reads “Increase”. `CCOC(=O)N1CCC(c2ccccc2OC)(S(=O)(=O)c2ccc(Cl)cc2)CC1`: the EC50 in test [3] is 640 nM; in test [4], 530 nM. As for `CCOC(=O)N1CCC(c2ccccc2C)(S(=O)(=O)c2ccc(OC)cc2)CC1`, the EC50 entry in test [1] is given as “Increase”.
